MIC data for four compounds are collected here from ChEMBL document CHEMBL1123701, “Synthesis and quantitative structure-activity relationship analysis of N-triiodoallyl- and N-iodopropargylazoles. New antifungal agents” (1987).

The subject of assay [1] is Trichophyton interdigitale. Put plainly: Antifungal activity towards Trichophyton interdigitale. It is filed as functional.
In another assay the test system is Cryptococcus neoformans. The assay is described as follows: Antifungal activity against Cryptococcus neoformans Cr-1 strain. It is filed as functional.
A further assay deals with Aspergillus fumigatus. The assay is described as follows: Antifungal activity against Aspergillus fumigatus Saito strain. It is filed as functional.
The next assay has as its system Candida albicans. Put plainly: Antifungal activity against Candida albicans C-A-24 strain. It is filed as functional.
The next assay deals with Trichophyton benhamiae. The assay is described as follows: Antifungal activity towards Trichophyton mentagrophytes 530324 strain. Type of assay: functional, Arthroderma benhamiae.

≈ marks a conversion by molar mass, not a printed value.

As to `IC#CCn1nnc(-c2ccccc2)n1`, the minimum inhibitory concentration (MIC) – broadly, the lowest concentration that inhibits growth of the organism – in assay [1] worked out at 0.39 µg/mL (≈ 1.26 µM); in the assay on Cryptococcus neoformans it was 1.56 µg/mL (≈ 5.03 µM); against Aspergillus fumigatus, 0.2 µg/mL (≈ 0.645 µM); against Candida albicans it was 0.78 µg/mL (≈ 2.52 µM); with Trichophyton benhamiae, 0.2 µg/mL (≈ 0.645 µM).

On to `Fc1ccc(-c2nnn(CC(I)=C(I)I)n2)cc1`, for which the MIC in assay [1] was 0.78 µg/mL (≈ 1.34 µM); in the assay on Cryptococcus neoformans, > 100 µg/mL; in the assay on Aspergillus fumigatus, > 100 µg/mL; against Candida albicans it was > 100 µg/mL; in the assay on Trichophyton benhamiae, 0.1 µg/mL (≈ 0.172 µM).

With `Clc1ccccc1C(c1ccccc1)(c1ccccc1)n1ccnc1` [CLOTRIMAZOLE], the minimal inhibitory concentration (MIC) in assay [1] turned out to be 0.39 µg/mL (≈ 1.13 µM); in the assay with Cryptococcus neoformans, 1.56 µg/mL (≈ 4.52 µM); against Aspergillus fumigatus, 1.56 µg/mL (≈ 4.52 µM); in the assay on Candida albicans, 6.25 µg/mL (≈ 18.1 µM); in the assay on Trichophyton benhamiae, 0.39 µg/mL (≈ 1.13 µM).

Take `Clc1cc(Cl)c(OCC#CI)cc1Cl` [HALOPROGIN]: the minimal inhibitory concentration (MIC) in assay [1] worked out at 0.39 µg/mL (≈ 1.08 µM); with Cryptococcus neoformans it was 1.56 µg/mL (≈ 4.32 µM); against Aspergillus fumigatus, 3.13 µg/mL (≈ 8.66 µM); against Candida albicans, 3.13 µg/mL (≈ 8.66 µM); against Trichophyton benhamiae it was 0.39 µg/mL (≈ 1.08 µM).
